Reference: patent US8017584B2, “GD3-mimetic peptides” (Otsuka Pharmaceutical Co., Ltd., priority 2000, dated 2011)
“And” between values parts separate entries of the source, which are not always exact repeats. Identical values can stand only once.

Tests used:
Anti-GD2 antibody = assay: ELISA of immobilized MAP-form peptides with control anti-GD2 antibody; assay type: binding; details: MAP form 100 ng/well
Method: (§1) A 0.1M NaHCO3 solution containing a GD3-mimetic peptide of the invention in the above MAP form (100 ng/100 μL) was added to the wells of a 96-well micro-titer plate, for immobilization at room temperature for one hour. Subsequently, in a manner similar to the ELISA method employed in Example 2, binding affinity of the GD3-mimetic peptide to GD3 antibody 4F6 was investigated.
(§2) Anti-GD2 antibody and anti-OAcGD3 antibody (Cerato, E., et al., Hybridoma, 16(4), 307-316 (1997)) were used as controls (these antibodies were kindly provided by from Dr. Portoukalian).

GD3 antibody 4F6 [1] = assay: ELISA of immobilized phage clones with GD3 antibody 4F6 (Example 2); assay type: binding, mouse; details: phage clone immobilized, duplicate lines
Method: (§3) A 0.1M NaHCO3 solution containing each of the phage clones obtained in Example 1 (10^11, 10^10, or 10^9 titer/100 μL) was added to the wells of a 96-well microtiter plate (product of Nunc), for immobilization of the phage clones at room temperature for one hour. The supernatant was removed, then the wells were subjected to blocking by use of a blocking solution ([…]; TBS containing 1% BSA, 0.1% skim milk, and 0.02% Tween 20; pH 7.5) at 37° C. for four hours.
(§4) The supernatant was removed, then GD3 antibody 4F6 (100 μL), serving as a primary antibody, was added to each well for reaction under shaking at room temperature for two hours. After completion of reaction, the supernatant was removed, then the wells were washed six times with a washing solution (400 μL for each well, TBS containing 0.05% Tween 20). Subsequently, a secondary antibody (anti-mouse IgG-HRP, product of Santa Cruz Biotechnology, catalogue No. SC-2031, Lot. No. C089) which was diluted 5,000-fold by use of a blocking solution prepared in advance was added to the wells (100 μL to each well) for reaction under shaking at room temperature for one hour. After completion of reaction, the wells were washed four times with a washing solution (400 μL for each well), then a detection reagent (TMB Microwell; product of KPL, Catalogue No. 50-76-04, Lot. No. WF075) was added to the wells (100 μL to each well), and the mixture was allowed to stand for five minutes at room temperature.
(§5) 1N-Hydrochloric acid (100 μL) was added to each well for stopping the reaction. Absorbance of each well was measured at 450 nm and 620 nm, and “OD450-OD620” was calculated. A Multiscan (product of Labosystems) was used in measurement of absorbance. A well in which phages had not been immobilized served as a blank, and the absorbance of each well was determined by subtracting the blank value from the “as-measured” value.

[2] = system: T-cell-rich lymphocytes / IL-2-dependent CTLL2 cells; assay: Cell response test: IL-2 activity (3H thymidine up-take of CTLL2 cells) in supernatant of spleen cells of mice immunized with R4 peptide (R4-KLH); assay type: cell-based, mouse; details: mice immunized with R4 peptide
Anti-OAcGD3 antibody = assay: ELISA of immobilized MAP-form peptides with control anti-OAcGD3 antibody; assay type: binding; details: MAP form 100 ng/well
Method: as §1, §2

[3] = system: T-cell-rich lymphocytes / IL-2-dependent CTLL2 cells; assay: Cell response test: IL-2 activity (3H thymidine up-take of CTLL2 cells) in supernatant of spleen cells of mice immunized with GD3; assay type: cell-based, mouse; details: mice immunized with GD3
GD3 antibody 4F6 [4] = assay: ELISA of immobilized MAP-form GD3-mimetic peptides with anti-GD3 antibody (Example 3(3)); assay type: binding, mouse; details: MAP form 100 ng/well
Method: as §3, §4, §5, §1, §2

[5] = stimulant 1 μg/ml, supernatant dilution 1/20
[6] = stimulant 1 μg/ml, supernatant dilution 1/50
[7] = stimulant 1 μg/ml, supernatant dilution ½
[8] = stimulant 1 μg/ml, supernatant dilution ⅕
[9] = stimulant 2 μg/ml, supernatant dilution 1/20
[10] = stimulant 2 μg/ml, supernatant dilution 1/50
[11] = stimulant 2 μg/ml, supernatant dilution ½
[12] = stimulant 2 μg/ml, supernatant dilution ⅕
[13] = stimulant 5 μg/ml, supernatant dilution 1/20
[14] = stimulant 5 μg/ml, supernatant dilution 1/50
[15] = stimulant 5 μg/ml, supernatant dilution ½
[16] = stimulant 5 μg/ml, supernatant dilution ⅕

Sequence: PHFDSLLYPCELLGC (PHFDSLLYPCQLLGC) [GD3R2, tested as phage clone, MAP form or peptide]
- ELISA absorbance, Anti-GD2 antibody (Anti-GD2 antibody; Serum % 12.50%): 0.052
- ELISA absorbance, Anti-GD2 antibody (Anti-GD2 antibody; Serum % 25%): 0.071
- ELISA absorbance, Anti-GD2 antibody (Anti-GD2 antibody; Serum % 50%): 0.079
- ELISA absorbance, Anti-GD2 antibody (Anti-GD2 antibody; Serum % 100%): 0.132
- absorbance OD450-OD620, binding to GD3 antibody 4F6 (GD3 antibody 4F6 [1]; 10^9 titer/well): 0.055 and 0.034
- absorbance OD450-OD620, binding to GD3 antibody 4F6 (GD3 antibody 4F6 [1]; 10^10 titer/well): 0.128 and 0.109
- 3H Thymidine up-take into CTLL2 cells, mean ± SE (4 wells) [2, 5]: 745 ± 136
- 3H Thymidine up-take into CTLL2 cells, mean ± SE (4 wells) [2, 6]: 178 ± 38
- 3H Thymidine up-take into CTLL2 cells, mean ± SE (4 wells) [2, 7]: 2857 ± 493
- 3H Thymidine up-take into CTLL2 cells, mean ± SE (4 wells) [2, 8]: 1714 ± 239
- 3H Thymidine up-take into CTLL2 cells, mean ± SE (4 wells) [2, 9]: 694 ± 141
- 3H Thymidine up-take into CTLL2 cells, mean ± SE (4 wells) [2, 10]: 163 ± 41
- 3H Thymidine up-take into CTLL2 cells, mean ± SE (4 wells) [2, 11]: 2764 ± 322
- 3H Thymidine up-take into CTLL2 cells, mean ± SE (4 wells) [2, 12]: 1653 ± 286
- 3H Thymidine up-take into CTLL2 cells, mean ± SE (4 wells) [2, 13]: 748 ± 162
- 3H Thymidine up-take into CTLL2 cells, mean ± SE (4 wells) [2, 14]: 174 ± 32
- 3H Thymidine up-take into CTLL2 cells, mean ± SE (4 wells) [2, 15]: 2849 ± 396
- 3H Thymidine up-take into CTLL2 cells, mean ± SE (4 wells) [2, 16]: 1628 ± 245
- ELISA absorbance, Anti-OAcGD3 antibody (Anti-OAcGD3 antibody; Serum % 12.50%): 0.021
- ELISA absorbance, Anti-OAcGD3 antibody (Anti-OAcGD3 antibody; Serum % 25%): 0.023
- ELISA absorbance, Anti-OAcGD3 antibody (Anti-OAcGD3 antibody; Serum % 50%): 0.027
- ELISA absorbance, Anti-OAcGD3 antibody (Anti-OAcGD3 antibody; Serum % 100%): 0.038
- 3H Thymidine up-take into CTLL2 cells, mean ± SE (4 wells) [3, 5]: 792 ± 88
- 3H Thymidine up-take into CTLL2 cells, mean ± SE (4 wells) [3, 6]: 185 ± 31
- 3H Thymidine up-take into CTLL2 cells, mean ± SE (4 wells) [3, 7]: 2957 ± 326
- 3H Thymidine up-take into CTLL2 cells, mean ± SE (4 wells) [3, 8]: 1784 ± 164
- 3H Thymidine up-take into CTLL2 cells, mean ± SE (4 wells) [3, 9]: 856 ± 107
- 3H Thymidine up-take into CTLL2 cells, mean ± SE (4 wells) [3, 10]: 192 ± 40
- 3H Thymidine up-take into CTLL2 cells, mean ± SE (4 wells) [3, 11]: 3057 ± 321
- 3H Thymidine up-take into CTLL2 cells, mean ± SE (4 wells) [3, 12]: 1719 ± 184
- 3H Thymidine up-take into CTLL2 cells, mean ± SE (4 wells) [3, 13]: 931 ± 124
- 3H Thymidine up-take into CTLL2 cells, mean ± SE (4 wells) [3, 14]: 203 ± 36
- 3H Thymidine up-take into CTLL2 cells, mean ± SE (4 wells) [3, 15]: 3022 ± 316
- 3H Thymidine up-take into CTLL2 cells, mean ± SE (4 wells) [3, 16]: 1717 ± 198
- ELISA absorbance, Anti-GD3 antibody (GD3 antibody 4F6 [4]; Serum % 12.50%): 0.055
- ELISA absorbance, Anti-GD3 antibody (GD3 antibody 4F6 [4]; Serum % 25%): 0.105
- ELISA absorbance, Anti-GD3 antibody (GD3 antibody 4F6 [4]; Serum % 50%): 0.159
- ELISA absorbance, Anti-GD3 antibody (GD3 antibody 4F6 [4]; Serum % 100%): 0.264
